The values below come from US20160061820A1, “IN VITRO BILIARY EXCRETION ASSAY” (HUREL CORPORATION, priority 2014, published 2016).

Molecules are shown by their SMILES. Read-outs that look alike come from different tables or passages of the source.

In one data set the test system is bile canaliculi. Nature of the data set: Disruption of canaliculi, CDFDA staining (Example 3). It counts as cell-based, human. To be noted: 5 uM CDFDA with 10 uM LatA, 20 min. How it is done: In the second method, the cultures were exposed to buffer containing latranculin A (LatA). The LatA functions to disrupt microfilament organization, a key step in tight junction formation, which allows bile present in the canaliculi to escape. Cells were first washed twice in HBSS buffer with Ca+. Cells were then incubated with 5 uM CDFDA in HBSS buffer with Ca+ and 10 uM LatA for 20 min. Cells were then washed two times in HBSS buffer with Ca+.

Data set [1] can be described thus: in vitro. Particulars: hepatocytes. Here is the method: (§1) The single well method of assessing biliary clearance of the invention was used.
(§2) A coculture was exposed to each tested compound in culture media at the indicated concentration for 20 minutes. The media was then removed (collection #1) and stored for analysis of remaining compound. The cultures were washed twice with buffer solution (collections #2 and #3) and each wash solution was stored for analysis of remaining taurcholate. […] This releases taurcholate accumulated in the bile of the canaliculi. At the end of the incubation period the culture media was collected (collection #4). The cells were then exposed to deionized water which functions to disrupt the cellular membrane and release the compound accumulated in the cellular compartment (collection #5). Because any compound present in the canaliculi was already collected in collection #4, collection #5 contains any compound present in the cell but not including any present in the canaliculi.
(§3) In teach figure the measured amount of compound in bile and the measured amount of compound in the cytoplasm are presented together as two parts of a single bar on the left side of the figure. The measured value for the bile is also shown as a bar on the right side of the figure. Comparing the height of the right bar (bile) to the height of the composite left bar (total of cytoplasm+bile) allows visulation of the portion of the compound that accumulated in the bile. […] Equation 2 was used to calculate the BEI for each compound in this system. The data were used to calculate the Biliary Clearance (Equation 1) and BEI (Equation 2) for each tested compound.

A short description of data set [2]: in vitro. To be noted: rat, hepatocytes. Here is the method:
as §1
(§4) The media was then removed (collection #1) and stored for analysis of remaining compound. […] At the end of the incubation period the culture media was collected (collection #4). The cells were then exposed to deionized water which functions to disrupt the cellular membrane and release the compound accumulated in the cellular compartment (collection #5). Because any compound present in the canaliculi was already collected in collection #4, collection #5 contains any compound present in the cell but not including any present in the canaliculi. […] The data is presented in FIG. 9-13 using the same format as used in FIGS. 4-8.
(§5) Equation 2 was used to calculate the BEI for each compound in this system.

Data set [3] deals with cryopreserved human hepatocytes in sandwich culture. Particulars: cited from earlier work.
The subject of data set [4] is cultured human hepatocytes. Nature of the data set: in vitro. How it is done: as §1, §2, §3
Another data set relates to cultured rat hepatocytes. Nature of the data set: in vitro. How it is done: as §1, §4, §5
For data set [5] the following is noted: Lundquist (2014); cited from earlier work.
Data set [6] has as its system primary human hepatocytes grown in a hepatocyte-stromal cell coculture. Here is the method:
Accumulation in the bile and accumulation in the cell were measured separately in a single well of a coculture plate. The measured values for bile accumulation and cell accumulation are shown as separately shaded portions of a single bar. The error bars represent a single standard deviation.
FIG. 18 compares the results of three independent experiments measuring biliary uptake of pravastatin by primary human hepatocytes grown in a hepatocyte-stromal cell coculture. Accumulation in the bile and accumulation in the cell were measured separately in a single well of a coculture plate. The measured values for bile accumulation and cell accumulation are shown as separately shaded portions of a single bar. The error bars represent a single standard deviation.

Setting [7] is: Bi et al. (2006), two culture method.

`C/C1=C/C(=O)O[C@@H]2C[C@@H](CC[C@H](C)/C=C\C=C\CC1)O[C@@](O)([C@@H]1CSC(=O)N1)C2` [LatA, latrunculin A]: in the data set on bile canaliculi, the “CDA staining of canaliculi” value was “no CDA staining was apparent”.
Turning to `C[C@H]1O[C@@H](O[C@H]2[C@@H](O)C[C@H](O[C@H]3[C@@H](O)C[C@H](O[C@H]4CC[C@@]5(C)[C@H](CC[C@@H]6[C@@H]5C[C@@H](O)[C@]5(C)[C@@H](C7=CC(=O)OC7)CC[C@]65O)C4)O[C@@H]3C)O[C@@H]2C)C[C@H](O)[C@@H]1O` [digoxin], the values for the microsomal CLint in the data set “in vitro [1]” (human) and in “in vitro [2]” were 0.4 µL/min/mg and 0.31 ± 0.02 µL/min/mg, respectively. In addition, the “Uptake Rate” value in data set [3] (setting [7]) is listed as 0.7-1.5 pmol/min/mg protein.
Turning to `C[C@]12CC[C@@H]3c4ccc(O)cc4CC[C@H]3[C@@H]1CC[C@@H]2O[C@@H]1O[C@H](C(=O)O)[C@@H](O)[C@H](O)[C@H]1O` [estradiol-glucuronide], the microsomal CLint in data set [4] was 0.3 µL/min/mg; in data set [3], 1.8 µL/min/mg. Besides, the “Rat In Vitro PK Intrinsic CLint, biliary” value in the data set on cultured rat hepatocytes (rat, hepatocytes) came out at 2.7 ± 0.1 μl/min/mg protein. Besides, the “Biliary Excretion Index (BEI)” value in data set [3] (setting [7]) is listed as 37%. Also, the “Uptake Rate” value in data set [3] is 2.2 pmol/min/mg protein.
For `CC[C@H](C)C(=O)O[C@H]1C[C@H](O)C=C2C=C[C@H](C)[C@H](CC[C@@H](O)C[C@@H](O)CC(=O)O)[C@H]21` [pravastatin], the values for the microsomal CLint in the data set “in vitro [1]” (human) and in “in vitro [2]” were 0.38 µL/min/mg and 0.29 ± 0.02 µL/min/mg, respectively.
As to `CC(C)c1nc(N(C)S(C)(=O)=O)nc(-c2ccc(F)cc2)c1/C=C/[C@@H](O)C[C@@H](O)CC(=O)O` [rosuvastatin], the microsomal CLint in the data set “in vitro [1]” (human) amounted to 6 µL/min/mg; in the data set “in vitro [2]” it was 3.5 ± 0.3 µL/min/mg. In addition, the “Fold Difference” value with cultured rat hepatocytes (rat) amounted to 0.6. Also, in data set [5], the “Rat In Vivo PK In Vivo CLbiliary” value was 48.0 ± 10.8 mL/min/kg. Besides, in data set [3] (setting [7]), the “Biliary Excretion Index (BEI)” value is 43-58%. The “Uptake Rate” value in data set [3] (setting [7]) was 15-26 pmol/min/mg protein.
In the data set “in vitro [1]”, `C[C@H](CCC(=O)NCCS(=O)(=O)O)[C@H]1CC[C@H]2[C@@H]3[C@H](O)C[C@@H]4C[C@H](O)CC[C@]4(C)[C@H]3C[C@H](O)[C@]12C` [taurocholate, taurocholic acid] came in with a microsomal CLint of 23 µL/min/mg. Also, the BEI in the data set on cultured rat hepatocytes (rat hepatocyte coculture, compound 2 uM (pravastatin 5 uM), 20 min, latrunculin 5 uM 30 min) is on record as 60%. Further, in the data set with cultured rat hepatocytes (scaled from Clint,bile with 200 mg protein/g liver and 40 g liver/kg), the “Rat In Vitro PK Predicted CLbiliary” value was 67.1 ± 4.8 mL/min/kg. Besides, the figures for the “Bile accumulation, Mean” value in data set [6] (Exp. 1), in data set [6] (Exp. 2) and in data set [6] (Exp. 3) were 541.90, 556.08 and 543.31, respectively.
